Laboratory results published in US11857532B2, “Treatment and prediction of therapeutic responses in patients suffering from Friedreich ataxia” (INSERM (Institut National de la Santé et de la Recherche …, priority 2018, dated 2024).

Columns and labels:
Type in all cases: cell-based, human
[1] = tested on: fibroblasts (cellular iron content); assay: Ferrozine-based iron quantification in fibroblasts; conditions: for iron content: control cells
Experimental: (§1) Skin fibroblasts were grown in Dulbecco's Modified Eagle Medium (DMEM, Life technologies) medium supplemented with 10% fetal bovine serum (FBS), 2 mM L-glutamine, 2.5 mM pyruvate, 100 μg/ml streptomycin, 100 U/ml penicillin at 37° C. For treatment with ferric ammonium citrate (FAC), 80% confluent cells were incubated for 72 h with or without 100 μM FAC in serum-free DMEM (i.e. Tf free). For drug treatment, 80% confluent cells were incubated in DMEM+10% FBS supplemented with 25 μM artesunate (Sigma) in DMSO for 48 h, 25 μM CoA (Sigma) for 72 h and 5 mM DCA (Sigma) for 72 h.
(§2) Total iron contents were measured using a ferrozine-based iron assay modified from (Barbeito et al., 2010). For imaging flow cytometry, fibroblasts were starved for one hour in FBS-free DMEM medium, treated with 5 mM EDTA for harvesting them without disrupting TfR1 located at cell surface, as trypsin does, washed 3 times with cold PBS and then labelled with anti-TfR1 antibodies (A24) (Moura et al., 2004) for 1 h on ice to avoid TfR1 internalization. In this condition, only membrane-bound TfR1 is quantified. Secondary staining was performed using Alexa fluor 488 goat anti-mouse antibody (Life technology) for 30 min on ice. Cells were washed and stained with Hoechst for 5 min in a total volume of 50 μl and acquisitions were directly performed. Cell analysis was based on Hoechst-positive signal, allowing to select living cells. Samples were run on an Imagestream ISX mkII (Amnis Corp, Millipore, Seattle, WA) that combines flow cytometry with detailed cell-imaging and functional studies and a 40× magnification was used for all acquisitions. Data were acquired using the INSPIRE software (Amnis Corp) and analyzed using the IDEAS™ software (version 6.2 Amnis Corp) on at least 20,000 events. Spectral compensation was performed using singly stained samples. A specific mask was designed for analysis of the membrane localization of TfR1. This mask was the result of a full bright field mask minus a 5 pixels erode and 1 pixel dilate bright mask resulting in doughnuts-like mask. Results were expressed as mean pixel intensity value which is the intensity normalized to surface area.

TfR1 [2] = assay: Western blot of TfR1 steady-state level in fibroblasts; conditions: for steady state level of TfR1: CoA 25 μM 72 h, DCA 5 mM 72 h, artesunate 25 μM 48 h
Experimental: as §1
(§3) Cultured skin fibroblasts were harvested on ice by scraping in reducing (2 μM dithiothreitol, DTT, denaturation at 95° C. for 5 min) or non-reducing cell lysis buffer (no DTT, no heat denaturation). Western bot analysis was performed on 20 μg of whole-cell protein extracts or mitochondrial-enriched fractions in 12% acrylamide gel or 4-15% gel gradient. Immunodetections were performed in PBS with 5% or 1% milk, 0.05% Tween20 (SIGMA) using the following antibodies: rabbit anti-SOD1 (Abcam, ab16831), rabbit anti-SOD2 (Abcam, ab13533), mouse anti-TfR1 (Invitrogen, 13-6800), rabbit anti-TfR1 (Abcam, 108985), rabbit anti-ferritin (Abcam, ab75973), rabbit anti-IRP1 (Abcam, ab126595), rabbit anti-IRP2 (Abcam, ab80339), rabbit anti-FBXL5 (Abcam, ab140175), rabbit anti-FDXR (Abcam, 204310), rabbit anti-FXN (Protein tech, 14147-1-AP), rabbit anti-PDH E2 subunit (Abcam, ab172617), rabbit anti-lipoic acid (Abcam, ab58724), goat anti-Biotin (Thermo, 31852), mouse anti-VDAC/Porine (Abcam, ab14734)
(§4) mouse anti-ATP5a (Abcam, ab14748), mouse anti-Vinculin (abeam, ab130007), rabbit anti-TFAM (Proteintech, 19998-1-AP), rabbit ATP8 (Proteintech, 26723-1-AP) and mouse anti-GAPDH antibodies (ab8245). Blots were incubated with fluorescent secondary antibodies (IRDye 800CW/680LT Goat anti-rabbit or anti-mouse IgG (LI-COR)) or HRP-conjugated secondary antibodies (goat anti-rabbit IgG HRP (Abcam), goat anti-mouse IgG HRP (Abcam) or donkey anti-goat IgG HRP (Santa Cruz)) before ECL-based detection (SuperSignal West Dura, Thermo Scientific). Signals captured either with the Odyssey Infrared Imaging System using Image Studio Lite v5.2 (LI-COR Biosciences) or with CDD camera using Image Lab v3.0 (BioRad).

TfR1 [3] = assay: TfR1 palmitoylation assay in cultured skin fibroblasts
Experimental: as §1
TfR1 palmitoylation in cultured skin fibroblasts was modified from (Ba et al., 2012). Briefly, cells were lysed on ice in a DTT-free cell lysis buffer and endogenous TfR1 was immunoprecipitated overnight with mouse anti-TfR1 antibody (Life Technologies, 136890) with protein G magnetic beads (BioRad). After washing with PBS, beads were successively incubated 2 h with 50 mM N-ethylmaleimide (NEM) at room temperature, 1 M hydroxylamine and 50 mM HPDP-Biotin (Thermo) in dark for 2 hours. Samples were run in 12% acrylamide gel and biotin-labeled TfR1 level was determined by immunoblotting in non-reducing conditions using Chemidoc technology thanks to a CCD camera (BioRad) and ImageLab software v3.0 (BioRad).

membrane-bound TfR1 = assay: Imaging flow cytometry (Imagestream) of membrane-bound TfR1 in fibroblasts
Experimental: as §1
Fibroblasts were starved for one hour in FBS-free DMEM medium (i.e. Tf-free), treated with 5 mM EDTA for harvesting them without disrupting TfR1 located at cell surface, as trypsin does, and then labelled with anti-TfR1 antibody at 4° C. to avoid TfR1 internalization. In this condition only membrane-bound TfR1 is quantified. Cell sorting was based on Hoechst-positive signal, allowing to select living cells.
as §2, with “Samples were run on an Imagestream ISX mkII (Amnis Corp, Millipore, Seattle, WA) that combines flow cytometry with detailed cell-imaging and functional studies and a 40× magnification was used for all acquisitions.” left out, “Spectral compensation was performed using singly stained samples. A specific mask was designed for analysis of the membrane localization of TfR1. This mask was the result of a full bright field mask minus a 5 pixels erode and 1 pixel dilate bright mask resulting in doughnuts-like mask.” left out

PBMC (iron content) = assay: Ferrozine-based iron quantification in PBMC grown in high iron medium; conditions: 40 h in high iron medium (100 μM FAC), artesunate 25 μM
Experimental: PBMC were isolated from 8 ml blood samples by density centrifugation using Ficoll (GE Healthcare) and grown 2 h in regular DMEM before treatment with 100 μM FAC for different time.
as §2, with “Samples were run on an Imagestream ISX mkII (Amnis Corp, Millipore, Seattle, WA) that combines flow cytometry with detailed cell-imaging and functional studies and a 40× magnification was used for all acquisitions.” left out, “Spectral compensation was performed using singly stained samples. A specific mask was designed for analysis of the membrane localization of TfR1. This mask was the result of a full bright field mask minus a 5 pixels erode and 1 pixel dilate bright mask resulting in doughnuts-like mask.” left out

[4] = tested on: ferritin, FBXL5, SOD2, IRP1-2; assay: Western blot of proteins involved in iron homeostasis and antioxidant defense in fibroblasts; conditions: artesunate 25 μM for 48 h
Experimental: as §1, §3, §4

[5] = tested on: fibroblasts (Tf recycling); assay: Transferrin (Tf) recycling by spinning-disk confocal microscopy in fibroblasts
Experimental: as §1
For Tf recycling, fibroblasts were spread at 30% confluence onto micro-slides glass bottom (IBIDI) 24 h before experiment. Cells were then starved in FBS-free DMEM media for 1 h before add Tf-RED (12.5 μg/mL) for 30 min at 37° C. Cells were washed with PBS and then incubated for in regular media for live-imaging acquisition using spinning disk confocal microscopy (ZEISS Microscopy). Slides were placed un incubation chamber at 37° C. under 5% CO2. At least 20 cells were acquired by condition using 63× oil immersion objective lens with a picture of cell/min during 40 min using Zen software. The nuclear region (NR) was defined using Icy software v1.9. […] PNROI masks were then applied on RED channel by spot detector plugin to obtain quantitative mean fluorescence particle intensity. […]

[6] = control cells, artesunate 25 μM for 48 h
[7] = FRDA fibroblasts, artesunate 25 μM for 48 h

Structure (SMILES): CC(C)(COP(=O)(O)OP(=O)(O)OC[C@H]1O[C@@H](n2cnc3c(N)ncnc32)[C@H](O)[C@@H]1OP(=O)(O)O)[C@@H](O)C(=O)NCCC(=O)NCCS [CoA, [[(2R,3S,4R,5R)-5-(6-aminopurin-9-yl)-4-hydroxy-3-phosphonooxyoxolan-2-yl]methoxy-hydroxyphosphoryl][(3R)-3-hydroxy-2,2-dimethyl-4-oxo-4-[[3-oxo-3-(2-sulfanylethylamino)propyl]amino]butyl]hydrogen phosphate]
- decrease of cellular iron content ([1]; FRDA fibroblasts, high iron conditions (+FAC), CoA 25 μM for 72 h): 1.6-2.4 fold
- steady state level of TfR1 (TfR1 [2]; FRDA fibroblasts): decreased
- increase of TfR1 palmitoylation (TfR1 [3]; FRDA fibroblasts, CoA 25 μM for 72 h): 2.1 to 3.2 fold
- membrane TfR1 accumulation (membrane-bound TfR1; summary statement in discussion, conditions not given): reduced

Structure (SMILES): C[C@H]1[C@H](OC(=O)CCC(=O)O)O[C@@H]2O[C@@]3(C)CC[C@H]4[C@H](C)CC[C@@H]1[C@@]24OO3 [artesunate, (3R,5aS,6R,8aS,9R,10S,12R,12aR)-Decahydro-3,6,9-trimetyl-3,12-epoxy-12H-pyrano[4,3-j]-1,2-benzodioxepin-10-ol, hydrogen succinate]
- iron content of PBMC (PBMC (iron content); FRDA PBMCs): two-fold decrease
- iron content of PBMC (PBMC (iron content); control PBMCs): two-fold decrease
- FBXL5 steady state level ([4]; FRDA fibroblasts): returned to control values
- IRP1-2 steady state levels ([4]; FRDA fibroblasts): not modified
- SOD2 steady state level ([4]; FRDA fibroblasts): decreased
- ferritin steady state level ([4]; FRDA fibroblasts): returned to control values
- FBXL5 steady state level ([4]; control cells): not modified
- ferritin steady state level ([4]; control cells): not modified
- cellular iron content relative to initial cellular iron content ([1]; FRDA fibroblasts, basal conditions, artesunate 25 μM for 48 h): 62-79 % of initial cellular iron content
- decrease of cellular iron content ([1]; FRDA fibroblasts, high iron condition (100 μM FAC), 25 μM artesunate for 48 h): 71-79%
- iron content ([1]; basal conditions, artesunate 25 μM for 48 h): light but non-significant increase
- iron content ([1]; high iron conditions (100 μM FAC), 25 μM artesunate): decreased
- TfR1 steady-state level relative to control values in artesunate-free medium (TfR1 [2]; FRDA fibroblasts, regular DMEM, artesunate 25 μM for 48 h): 136 % of control values
- steady state level of TfR1 (TfR1 [2]; FRDA fibroblasts): significantly decreased
- TfR1 steady-state level (TfR1 [2]; [6]): slight increase
- TfR1 palmitoylation relative to controls (TfR1 [3]; [7]): 80 % of controls
- TfR1 palmitoylation (TfR1 [3]; control cells, artesunate treatment): slight but non-significant decrease
- Tf recycling (Tf-Alexa555 signal) [5, 7]: complete rescue
- Tf recycling ([5]; control cells treated with artesunate): slight delay
- decrease of membrane TfR1 (membrane-bound TfR1; [7]): 15-30%
- increase of membrane TfR1 (membrane-bound TfR1; [6]): 1.1 to 1.3 fold
